The results in this text go back to patent US20250108051A1, “THERAPEUTIC AGENT FOR CANCER” (TOHOKU UNIVERSITY, priority 2022, published 2025).

Structures are written as SMILES.

In one data set the test system is HT29 cells. In words: Xenograft mouse model (Test Example 5), tumor volume and body weight. Format: in vivo. The following applies: nude mice, ATRA 10 mg/kg oral daily for 21 days. Here is the method:
As an in vivo test, the therapeutic agent for cancer according to the embodiment was administered to a mouse, and the antitumor effect was verified based on a change in tumor size (volume). Xenograft mouse model was prepared as follows. Female nude mice (BALB/c-nu) were purchased from Charles River Laboratories Japan (Yokohama, Japan) and raised in a specific pathogen-free environment. The above-described HT29 cells cultured were collected with trypsin, and suspended in a mixed solution of a culture medium and a Corning Matrigel basement membrane matrix (Corning, NY, USA) so as to reach 1×10^7 cells/ml. Into a left abdominal region of each mouse was subcutaneously implanted 0.1 mL of cell suspension. […] Encorafenib was orally administered at a dose of 10 mg/kg daily, and ATRA was orally administered at a dose of 10 mg/kg daily for 21 days. Feeding needles for mice were used for oral administration. Cetuximab was intraperitoneally administered twice a week at a dose of 20 mg/kg. Each solvent was used as the control. The tumor size and the body weight were measured every three days after the start of the therapy, and the volume was estimated using a calculation formula (tumor volume (mm^3)=½× major axis (mm)×[…]). […]

In data set [1] the test system is 8505C (BRAF V600E-mutated thyroid cancer cell line). Nature of the data set: MTT assay, encorafenib + binimetinib with ATRA. Format: cell-based. The following applies: ATRA 0, 1.0 or 10 μM; encorafenib and binimetinib 0 to 10 μM.
The test system of the next data set is RKO cell line. Nature of the data set: Annexin V-PI apoptosis assay. Format: cell-based. The following applies: TRE 10 μM, ENC 100 nM, BIN 100 nM, 72 hours, TRE vs DMSO. Here is the method: Thereafter, the cells were collected, washed with PBS, and stained with Annexin V and PI using Annexin V-FITC Apoptosis Detection Kit (Nakalai Tesque). Apoptotic cells were detected using CytoFLEX LX. A proportion of cells positive for Annexin V was calculated as a proportion of apoptotic cells. The above was performed three times as an independent experiment. Student's test was used for a significant difference test.

As to `CC1=C(/C=C/C(C)=C/C=C/C(C)=C/C(=O)O)C(C)(C)CCC1` [ATRA, all-trans retinoic acid], the “side effects (body weight)” value with HT29 cells is recorded as “does not cause any significant side effects”. Moreover, in the data set on HT29 cells (encorafenib 10 mg/kg oral daily, cetuximab 20 mg/kg i.p. twice a week), the “tumor volume (tumor size) change” value was “increased with day”. Further, the “cell viability with encorafenib and binimetinib as a function of ATRA concentration” value in data set [1] was “the higher the concentration of ATRA is, the lower the cell viability is”. Also, the “apoptotic cell proportion (Annexin V positive)” value with RKO cell line is reported as “no significant change”.
